Assay results from PubChem BioAssay (NCI).
“And” between values parts separate entries of the source, which are not always exact repeats. Equal entries are not always repeated.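 How tested: cells in 96-well plates exposed to compound for 48 hours at five concentrations. GI50: concentration for 50% inhibition of growth. TGI is the concentration that stops growth completely.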

What was measured:
Experiment in all cases: inhibition of tumour cell growth, NCI panel, 48 h
A498 renal = tested on: A498 renal
A549 NSCLC = tested on: A549 NSCLC
COLO 205 colon = tested on: COLO 205 colon
EKVX NSCLC = tested on: EKVX NSCLC
MALME-3M melanoma = tested on: MALME-3M melanoma
MOLT-4 leukemia = tested on: MOLT-4 leukemia
SK-MEL-2 melanoma = tested on: SK-MEL-2 melanoma
TK-10 renal = tested on: TK-10 renal
RXF 393 renal = tested on: RXF 393 renal
MDA-N = tested on: MDA-N

SMILES | TGI (A498 renal) [µM] | TGI (A549 NSCLC) [µM] | TGI (COLO 205 colon) [µM] | TGI (EKVX NSCLC) [µM] | TGI (MALME-3M melanoma) [µM] | TGI (MOLT-4 leukemia) [µM] | TGI (SK-MEL-2 melanoma) | TGI (TK-10 renal) [µM] | TGI (RXF 393 renal) [µM] | GI50 (A498 renal) [µM] | GI50 (COLO 205 colon) [µM] | GI50 (EKVX NSCLC) [µM] | GI50 (MALME-3M melanoma) [µM] | GI50 (MOLT-4 leukemia) [µM] | GI50 (SK-MEL-2 melanoma) | GI50 (TK-10 renal) | GI50 (RXF 393 renal) [µM] | TGI (MDA-N) [µM]
CC12CC3C(CC1SCC(=O)O2)C3(C)C (stereo not given) | > 100 | > 100 | > 100 | > 100 | > 100 | > 100 | > 100 µM | > 100 |  |  |  |  |  |  |  |  |  | 
C=C(C)[C@@]1(O)O[C@H]2C[C@@]3(C)OC(=CC3=O)/C(C)=C\[C@@H]3OC(=O)[C@@]1(C)[C@H]32 |  | > 93.3 | 35.3 | > 65.1 | > 100 | 40.4 | > 56.3 µM | 42.1 | 26.8 |  |  |  |  |  |  |  |  | 
S=c1sc2c(Cl)ncnc2n1-c1ccccc1 | 30.9 | 67.8 | 29 | 31.5 | 23.9 | 56.1 | 21.3 µM | 33.2 | 28.9 |  |  |  |  |  |  |  |  | 
O=C(CSCC(=O)N/N=C/c1cc(I)cc(I)c1O)N/N=C/c1cc(I)cc(I)c1O | 27.9 | > 100 | 63.8 | 79.2 | 44.3 | 29.2 | 47.4 µM | 31.6 | 24.5 |  |  |  |  |  |  |  |  | 
O=S(=O)(Oc1ccc2oc3ccccc3c2c1-c1c(OS(=O)(=O)C(F)(F)F)ccc2oc3ccccc3c12)C(F)(F)F | > 100 | > 100 | > 100 | > 100 |  | > 100 | > 100 µM | > 100 | > 100 |  |  |  |  |  |  |  |  | 
COc1cc2c(cc1OCCCN1CCN(CCCOc3cc4c(cc3OC)C(=O)N3CCC[C@H]3C=N4)CC1)C=CC(C)(C)O2 | 2.37 |  | 2.61 | 2.75 | 3.65 | 0.765 | 2.97 µM | 2.87 |  | 1.15 | 1.21 | 1.36 | 1.9 | 0.249 | 1.58 µM | 1.46 µM |  | 
C=C1C(=O)OC2/C=C(\C)C(OC(C)=O)C3OC3C(C)(O)CC(OC(=O)/C(C)=C/C)C12 (stereo not given) | 32.1 | 42.6 | 12.9 | 34.9 | 21 | 85.6 | 20.6 µM | 24.6 | 19.3 |  |  |  |  |  |  |  |  | 
c1csc(-c2ccc(-c3ccc(-c4ccc(-c5cccs5)s4)s3)s2)c1 | > 100 |  | > 100 | > 100 |  | > 100 |  | > 100 | > 100 |  |  |  |  |  |  |  |  | 
COc1ccc(Cn2c(C)nc3c2C(=O)c2ccccc2C3=O)cc1 |  | 36.1 | 22.6 | 49.2 | 19 | 30 | 29.8 µM | > 75 | 63.4 |  |  |  |  |  |  |  |  | 
O=C(O)CCCl |  | > 5000 | > 5000 |  | 4970 | > 5000 | > 5000 µM | > 5000 | > 5000 |  |  |  |  |  |  |  |  | 
COC(=O)C(=O)C(C(=O)Nc1cccc(C)c1C)C1Sc2ccccc2NC1=O (stereo not given) | > 25 | > 25 | > 25 | > 25 | 24 | > 25 | 18.3 µM | > 25 | 23.8 |  |  |  |  |  |  |  |  | 
Cc1ccc(S(=O)(=O)N/N=C/c2oc(-c3cccc([N+](=O)[O-])c3)c(-c3cccc([N+](=O)[O-])c3)c2[N+](=O)[O-])cc1 | > 100 | > 100 | > 100 | > 100 | > 100 | 77.9 | 76.9 µM | > 100 | 90.1 |  |  |  |  |  |  |  |  | 
CCCCNC1CCC2(SCCS2)c2[nH]c3ccccc3c21 (stereo not given) | 76.7 | > 100 | > 62.3 | > 100 | 33.8 | 33.5 |  | 45.1 | > 64.3 |  |  |  |  |  |  |  |  | 
Clc1ccc2c(SCC3CO3)c3ccccc3nc2c1 (stereo not given) | 33.9 | 20.3 | 10.7 | 20.4 | 6.39 | 4.3 | 8.11 µM | 3.35 | 8.08 |  |  |  |  |  |  |  |  | 
O=C(Nc1cccc2ccccc12)Oc1ccccc1C1CCCCC1 | 31.5 | 44.1 |  | 65.9 | 35.1 | 55.3 | 40.4 µM | 72.3 | 29.2 |  |  |  |  |  |  |  |  | 
CCC1(O)CC(OC2CC(N(C)C)C(OC3CC4OC5CC(=O)C(C)OC5OC4C(C)O3)C(C)O2)c2c(cc3c(c2O)C(=O)c2c(O)ccc(O)c2C3=O)C1C(=O)OC (stereo not given) | 0.016 |  |  |  |  |  | 0.0309 µM and 0.0149 µM and 0.0148 µM |  |  | 0.00459 |  |  |  |  | 0.00919 µM and 0.00439 µM and 0.00879 µM | 0.0168 µM and 0.00314 µM |  | 
FC(F)(F)c1ccc(-c2nc(-c3nc4cc(Cl)c(Cl)cc4[nH]3)c3ccccn23)cc1 | 79.1 |  | > 100 |  | > 100 | > 100 | 52.2 µM | > 100 | 5.99 | 4.58 | > 100 |  | 3.56 | > 100 | 9.49 µM | 8.15 µM | 2.26 | 
CC1(C)O[C@H]2Cn3c(c(C#N)c4ccccc43)[C@H]2O1 |  | > 100 | > 100 | > 100 | > 100 |  | > 100 µM | > 100 |  |  |  |  |  |  |  |  |  | > 100
